Test results: patent publication US20130196935A1, “SYNTHETIC GLYCOAMINE COMPOUNDS” (ANIMAL CELL THERAPIES INC., priority 2012, published 2013)
“And” between values parts separate entries of the source, which are not always exact repeats. Identical values can stand only once.

Experiments:
SVR cells [1] = assay: Clonogenic survival (colony formation) of SVR cells; type: cell-based; conditions: for Colony # (single well): 200 SVR cells per well; for Colony # Average: average of 4 wells; for inhibition of colony formation compared to the control: two-tailed t-test; for inhibition of SVR cell colony formation: concentrations 1 mM and higher, compared to control
Method: 1. Testing concentrations of ACT-1 and ACT-2: 1 mM, 500 μM, 250 μM, 125 μM, and 62.5 μM. 2. Prepared 2 mM ACT-1=0.91 mg/mL and 2 mM ACT-2=0.91 mg/mL in SVR complete culture medium. Sterilized the test article solutions by filtering through 0.2 μm syringe filters (Whatman Puradisc 25 mm, Cat #6780-2502). 3. Prepared solutions in 2× testing concentrations (2 mM, 1 mM, 500 μM, 250 μM, 125 μM and 62.5 μM) by preparing 2× dilution from 2 mM stock solution (mixing 2.4 mL culture medium with 2.4 mL of 2 mM solution, and make serial 2× dilutions the same way). 4. Pipetted 0.5 mL of test articles to 24-well plates according to the layout below (ACT-1 in one plate and ACT-2 in another plate). Each concentration will be tested in quadruplicate.
5. Trypsinized SVR cells (P1) and prepared 400 cells/mL solution in culture medium. Pipetted 0.5 mL cell solution to each well (200 cells/well). Mixed well by gentle pipetting. 6. Cultured cells at 37° C. incubator for 6 days. 7. Aspirated medium from the wells. Rinsed cells once with 1 mL of PBS (LONZA, Cat #: 17-516Q). 8. Fixed cells with 0.5 mL of freshly prepared 4% paraformaldehyde (PFA) (1:8 dilution of 32% PFA solution in PBS; 32% PFA solution: Electron Microscopy Sciences Cat #:15714) in PBS at RT for 20 min. Removed PFA and washed cells once with 1 mL PBS. 9. Stained cells with 0.3 mL of Mayer's hematoxylin solution (Sigma Cat#: MHS1-100ML) at RT for 15 min. Removed hematoxylin solution and rinsed cells twice with 1 mL of warm tap water. 10. Counted cell colonies under microscope with 40× magnification (divide the wells with makers into 4 sections. Count the numbers of colonies from each section and add the numbers to yield the final colony numbers).
1. Testing concentrations of ACT-1 and ACT-2: 4 mM, 2 mM, 1 mM, and 0.5 mM. 2. The experimental procedures were the same as in Experiment 1-1, except that the total volume in each well was 0.6 mL (0.3 mL of 2× concentrated test articles and 0.3 mL of 667 cells/mL cell solution).
3. Cultured cells at 37° C. incubator for 6 days. 4. Visualized the cell colonies by staining with hematoxylin as described above. 5. Counted the colonies under microscope.

SVR cells [2] = assay: TUNEL assay, apoptosis induction of SVR cells; type: cell-based; conditions: 2 mM, 24 hours
Method: 1. Testing concentrations of ACT-1 and ACT-2: 2 mM. 2. Prepared 4 mM ACT-1=1.82 mg/mL and 4 mM ACT-2=1.81 mg/mL in complete culture medium. Sterilized the drug solutions by filtering through 0.2 μm syringe filters. 3. Added 100 μl of test articles or culture medium to 4 wells for each ACT-1 and ACT-2 in a 96-well plate. Added 100 μl of culture medium to 5 wells (for non-treated and DNase treatment controls). 4. Trypsinized SVR cells (P3) and prepared 5×10^3 cells/mL solution in culture medium. Added 100 μl of cell solution to each well (500 cells/well). Mixed well by gentle pipetting. 5. Incubated at 37° C. for 24 hours. 6. Removed medium and added 100 μl of 4% PFA in PBS to the wells. Incubated at room temperature for 15 min. 7. Removed PFA solution and 100 μl of permeabilization reagent (0.25% Triton X-100 in PBS) (Triton X-100: Sigma Cat #: T8787-100ML). Incubated at room temperature for 20 min. Washed twice with deionized water. 8. TUNEL reaction was then carried out exactly as the protocol provided by the kit (Invitrogen Click-iT TUNEL Alexa Fluor Imaging Assay Kit, Cat #: C10245). Treated one well (culture medium control) with DNase as positive control for the TUNEL reaction. The reaction volume for each well was 50 μl. 9. After TdT and Click-iT reactions, DNA was stained with Hoechst 33342 (provided by the kit) 1:5,000 in PBS at RT for 15 min. Washed wells three times with PBS. 10. […]

[3] = MTS cytotoxicity assay on primary BAEC; type: cell-based, bovine; conditions: bovine, primary bovine aortic endothelial cells (BAEC), read-out: Viability of BAEC cells compared to control, Ave (%)
Method: (§1) 1. Testing concentrations of ACT-1 and ACT-2: 8 mM, 4 mM, 2 mM, 1 mM, 0.5 mM, 0.25 mM and 0.125 mM. 2. Trypsinized exponentially growing BAECs (P1) and SVR cells (P4), and prepared 5×10^4 cells/mL cell solution for BAECs and […] for SVR cells. Add 100 μl of cell solution to 96-well plates to achieve 5,000 cells/well for BAECs and 1,000 cells/well for SVR cells. Incubated cells at 37° C. overnight. 3. Prepared 8 mM=3.64 mg/mL and 8 mM ACT-2=3.62 mg/mL in BAEC complete culture medium. Sterilized the drug solutions by filtering through 0.2 μm syringe filters. 4. Prepared 2× serial dilutions from 8 mM stock solution by mixing 0.6 mL drug solution with 0.6 mL culture medium. 5. Aspirated medium from wells and added 80 μl of test article solutions to the wells according to the layout below.
(§2) 6. Incubated cells at 37° C. for 48 hours. 7. Aspirated the medium from wells and added fresh 70 μl culture medium to the wells. 8. Prepared MTS reagent (Promega CellTiter 96 Aqueous MTS assay reagents, Cat #G5421) by mixing 2.4 mL MTS, 120 μl PMS and 3.779 mL culture medium. Added 50 μl MTS assay reagent to the wells using a multiple channel pipette. 9. Incubate at 37° C. for 2 hours. Read absorbance at 490 nm using a plate reader.

[4] = test system: primary bovine aortic endothelial cells (BAEC); assay: MTS cytotoxicity assay on primary BAEC; type: cell-based; conditions: 0.125-8 mM, 48 hours
Method: as §1, §2

[5] = MTS cytotoxicity assay on SVR cells; type: cell-based; conditions: mouse, SVR cells, 48 hours, MTS, read-out: Viability of SVR cells compared to control, Ave (%)
Method: as §1, §2

SVR cells [6] = assay: MTS cytotoxicity assay on SVR cells; type: cell-based; conditions: for significance level P, cytotoxic effect on SVR cells compared to the control: 8 mM, two-tailed t-test; for cytotoxic effect on SVR cells: only at 8 mM, 48 hours, MTS
Method: as §1, §2

[7] = Experiment A, 62.5 μM, six days after treatment
[8] = Experiment A, 62.5 μM, six days
[9] = Experiment A, 125 μM, six days after treatment
[10] = Experiment A, 250 μM, six days after treatment
[11] = Experiment A, 500 μM, six days after treatment
[12] = Experiment A, 1000 μM, six days after treatment
[13] = Experiment A, 1000 μM, six days
[14] = Experiment B (higher concentrations), 0.5 mM, six days
[15] = Experiment B (higher concentrations), 1 mM, six days
[16] = Experiment B (higher concentrations), 2 mM, six days
[17] = Experiment B (higher concentrations), 4 mM, six days

Structure (SMILES)	Colony # (single well) (SVR cells [1]; [7])	Colony # Average (SVR cells [1]; [8])	Colony # (single well) (SVR cells [1]; [9])	Colony # Average (SVR cells [1]; Experiment A, 125 μM, six days)	Colony # (single well) (SVR cells [1]; [10])	Colony # Average (SVR cells [1]; Experiment A, 250 μM, six days)	Colony # (single well) (SVR cells [1]; [11])	Colony # Average (SVR cells [1]; Experiment A, 500 μM, six days)	Colony # (single well) (SVR cells [1]; [12])	Colony # Average (SVR cells [1]; [13])	Colony # (single well) (SVR cells [1]; [14])	Colony # (single well) (SVR cells [1]; [15])	Colony # (single well) (SVR cells [1]; [16])	Colony # (single well) (SVR cells [1]; [17])	Colony # Average (SVR cells [1]; Experiment B, 0.5 mM, six days)	Colony # Average (SVR cells [1]; Experiment B, 1 mM, six days)	Colony # Average (SVR cells [1]; Experiment B, 2 mM, six days)	Colony # Average (SVR cells [1]; Experiment B, 4 mM, six days)	inhibition of SVR cell colony formation (SVR cells [1]; Experiment B)	TUNEL nuclear staining (apoptosis induction) (SVR cells [2])	other results
CC(C)CC(NC[C@@]1(O)OC[C@@H](O)[C@@H](O[C@@H]2O[C@H](CO)[C@H](O)[C@H](O)[C@H]2O)[C@@H]1O)C(=O)O (stereo in doubt) [ACT-1]	43 and 42 and 41 and 39	41.3	44 and 41 and 39	40.8	43 and 40 and 41 and 34	39.5	42 and 41 and 33	39.3	34 and 32	33.0	40 and 45 and 35	38 and 32 and 33 and 34	1 and 2	0	40.0	34.3	1.8	0.0	inhibited SVR cell colony formation	nuclear staining was not observed	inhibition of colony formation compared to the control (SVR cells [1]; Experiment A, 1 mM): significant inhibition of colony formation; viability at 48 h, 0.125 mM [3]: 104%; viability at 48 h, 0.25 mM [3]: 112%; viability at 48 h, 0.5 mM [3]: 118%; viability at 48 h, 1 mM [3]: 126%; viability at 48 h, 2 mM [3]: 122%; viability at 48 h, 4 mM [3]: 112%; viability at 48 h, 8 mM [3]: 99.4%; cytotoxic effect on primary BAECs [4]: did not show significant cytotoxic effect; viability at 48 h, 0.125 mM [5]: 97.4%; viability at 48 h, 0.25 mM [5]: 99.7%; viability at 48 h, 0.5 mM [5]: 100%; viability at 48 h, 1 mM [5]: 97.7%; viability at 48 h, 2 mM [5]: 95.8%; viability at 48 h, 4 mM [5]: 93.1%; viability at 48 h, 8 mM [5]: 71.2%; significance level P, cytotoxic effect on SVR cells compared to the control (SVR cells [6]): 0.016; cytotoxic effect on SVR cells (SVR cells [6]): significant cytotoxic effect
O=C(O)[C@H](CC1CC1)NC[C@@]1(O)OC[C@@H](O)[C@@H](O[C@@H]2O[C@H](CO)[C@H](O)[C@H](O)[C@H]2O)[C@@H]1O [ACT-2]	49 and 51 and 43 and 48	47.8	44 and 42 and 39	41.8	50 and 44 and 39 and 37	42.5	39 and 31 and 33 and 35	34.5	33 and 36 and 39 and 28	34.0	38 and 34 and 40 and 31	13 and 23 and 19 and 16	0	0	35.8	17.8	0.0	0.0	inhibited SVR cell colony formation	nuclear staining was not observed	inhibition of colony formation compared to the control (SVR cells [1]; Experiment A, 0.5 mM): significant inhibition of colony formation; viability at 48 h, 0.125 mM [3]: 107%; viability at 48 h, 0.25 mM [3]: 133%; viability at 48 h, 0.5 mM [3]: 136%; viability at 48 h, 1 mM [3]: 132%; viability at 48 h, 2 mM [3]: 133%; viability at 48 h, 4 mM [3]: 118%; viability at 48 h, 8 mM [3]: 106%; cytotoxic effect on primary BAECs [4]: did not show significant cytotoxic effect; viability at 48 h, 0.125 mM [5]: 98.2%; viability at 48 h, 0.25 mM [5]: 105%; viability at 48 h, 0.5 mM [5]: 98.7%; viability at 48 h, 1 mM [5]: 92.5%; viability at 48 h, 2 mM [5]: 95.1%; viability at 48 h, 4 mM [5]: 87.8%; viability at 48 h, 8 mM [5]: 76.1%; significance level P, cytotoxic effect on SVR cells compared to the control (SVR cells [6]): 0.018; cytotoxic effect on SVR cells (SVR cells [6]): significant cytotoxic effect
